Laboratory results as given in the supplement of paper PMC10307832.

How the values were obtained:
Test in all cases: relative viability (nuclei count vs DMSO), 5 days (fraction); higher = more cells survive
[1] = compound: O=C(C[C@H]1NCCC[C@@H]1O)Cn1cnc2cc(Br)c(Cl)cc2c1=O (racemic) [Halofuginone] + CC(=O)Nc1cccc(-n2c(=O)n(C3CC3)c(=O)c3c(Nc4ccc(I)cc4F)n(C)c(=O)c(C)c32)c1 [Trametinib] (partner 0.02 µM)
Outline: (§1)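 Lung cancer cell lines, seeded in 1536-well plates, were treated the following day by pin tool with a single drug or with five library-drug doses (not always all listed) in √10 steps on top of a fixed anchor-drug dose. Cells were fixed and nuclei stained in one step after 5 days, and nuclei were counted. Relative viability is the nuclei count for treated wells divided by that for vehicle wells, reported as medians of duplicate plates.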

Cediranib + Foretinib = compound: COc1cc2c(Oc3ccc4[nH]c(C)cc4c3F)ncnc2cc1OCCCN1CCCC1 [Cediranib] + COc1cc2c(Oc3ccc(NC(=O)C4(C(=O)Nc5ccc(F)cc5)CC4)cc3F)ccnc2cc1OCCCN1CCOCC1 [Foretinib] (partner 0.25 µM)
Outline: as §1

[2] = compound: O=C(C[C@H]1NCCC[C@@H]1O)Cn1cnc2cc(Br)c(Cl)cc2c1=O (racemic) [Halofuginone] + CC(=O)c1c(C)c2cnc(Nc3ccc(N4CCNCC4)cn3)nc2n(C2CCCC2)c1=O [Palbociclib] (partner 0.5 µM)
Outline: as §1

[3] = compound: O=C(C[C@H]1NCCC[C@@H]1O)Cn1cnc2cc(Br)c(Cl)cc2c1=O (racemic) [Halofuginone] + C[C@]1(O)C[C@@H](c2nc(-c3ccc4ccc(-c5ccccc5)nc4c3)c3c(N)nccn32)C1 [Linsitinib] (partner 1 µM)
Outline: as §1

Cell Line	relative viability ([1]; first compound 0.001 µM)	relative viability ([1]; first compound 0.003162 µM)	relative viability ([1]; first compound 0.01 µM)	relative viability ([1]; first compound 0.03162 µM)	relative viability ([1]; first compound 0.1 µM)	relative viability (Cediranib + Foretinib; first compound 0.04 µM)	relative viability (Cediranib + Foretinib; first compound 0.1265 µM)	relative viability (Cediranib + Foretinib; first compound 0.4 µM)	relative viability (Cediranib + Foretinib; first compound 1.265 µM)	relative viability (Cediranib + Foretinib; first compound 4 µM)	relative viability ([2]; first compound 0.001 µM)	relative viability ([2]; first compound 0.003162 µM)	relative viability ([2]; first compound 0.01 µM)	relative viability ([2]; first compound 0.03162 µM)	relative viability ([2]; first compound 0.1 µM)	relative viability ([3]; first compound 0.001 µM)	relative viability ([3]; first compound 0.003162 µM)	relative viability ([3]; first compound 0.01 µM)	relative viability ([3]; first compound 0.03162 µM)	relative viability ([3]; first compound 0.1 µM)
201T	0.71	0.715	0.703	0.723	0.663	1.28	1.57	1.03	1.02	0.754	0.369	0.185	0.381	0.367	0.351	1.07	1.08	1.03	0.967	0.724
A549						0.903	1.07	0.858	0.975	0.899						0.653	0.556	0.612	0.559	0.286
A-427	0.823	0.787	0.742	0.714	0.634	1.12		0.948	0.925	0.942	0.526	0.538	0.534	0.49	0.479	1.18	1.13	1.02	1.09	1.08
ABC-1						1.17	1.2	1.04		0.879	0.551	0.606	0.739	0.475	0.61	0.921	0.947	0.763	0.625	0.961
BEN	1.14	1.11	1.07	1.02	0.714	0.745		0.707	0.344	0.682	0.487	0.471	0.441	0.473	0.385	0.965	0.912	1.03	0.841	0.352
CAL-12T	0.352	0.414	0.359	0.329	0.196	1.1	1.02	1.09	1.12	1.2	0.332	0.433	0.406	0.392	0.194	0.842	0.838	0.659	0.866	0.649
COR-L23	0.681	0.641	0.592	0.598	0.0948	0.943	0.938	0.916	1.05	1.09	0.328	0.303	0.344	0.292	0.139	0.973	0.91	0.972	0.876	0.102
COR-L 105	0.446	0.492	0.481	0.421	0.383	1.04	1.38	0.931	0.904	1.22	0.441	0.403	0.396	0.392	0.413	1.13	0.932	0.764	0.748	0.753
Calu-6						0.921	0.944	0.857	0.863	0.911						1		0.932	0.712	0.35
ChaGo-K-1	0.873	0.899	0.924	0.887	0.79	0.921	0.833	0.837	0.897	1	0.945	0.947	0.963	0.95	0.947					
EBC-1						0.109	0.107	0.103	0.104	0.0908						0.959	1.07	0.784	0.656	0.251
EKVX	0.383	0.358	0.339	0.37	0.314	0.67	0.418	0.74	0.705	0.751	0.377	0.352	0.415	0.444	0.306	1.02	0.966	0.916	1.06	0.762
EMC-BAC-2	1.02	0.913	0.83	0.85	0.321	1.04	1.11	0.984	0.991	1.03	0.545	0.531	0.506	0.536	0.37	0.813	0.872	0.798	0.785	0.641
EPLC-272H	0.312	0.273	0.285	0.326	0.247	0.634		0.634		0.693	0.306	0.33	0.339	0.361	0.314	1.28	1.17	1.06	1.2	1.13
H3255	0.746	0.73	0.543	0.716	0.517	0.788		0.821	0.732	0.932	0.322	0.323	0.346	0.309	0.351	0.913	0.952	0.876	0.941	0.805
HARA	0.918	1.27	0.639	0.968	0.221	0.92		0.766	0.868	0.706	0.382	0.266	0.234	0.264	0.216	1.02	0.981	0.79	1.02	0.828
HCC-15	0.415	0.412	0.399	0.368	0.31	1.01		0.946	1.07	1.09	0.802	0.823	0.731	0.713	0.65	0.914	0.908	0.839	0.92	0.688
HCC-44	1.04	1.1	1.05	1.13	0.966						0.976	0.964	0.962	0.932	0.966	0.67	0.678	0.594	0.682	0.341
HCC-78	0.775	0.718	0.709	0.766	0.503	0.584	0.73	0.576	0.58	0.593	0.516	0.519	0.497	0.488	0.551	0.479	0.579	0.484	0.706	0.312
